Experimental data taken from PubChem BioAssay (NCI).
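Cells were grown in 96-well plates and exposed to each compound for 48 hours at five concentrations; endpoints were interpolated linearly between bracketing concentrations, or set to the highest concentration if not reached. TGI marks complete inhibition of growth.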

test system: A549 NSCLC; assay: NCI tumour cell line growth inhibition, 48 h

Row | Structure (SMILES) | TGI [µM]
1 | S=C(N1CCN(c2ccc(Cl)c(Cl)c2)CC1)N1CCN(c2ccc(Cl)c(Cl)c2)CC1 | 37.9
2 | Cc1ccc(S(=O)(=O)NC(=O)NC(CC(N)=O)C(=O)O)cc1 (stereo not drawn) | > 100
3 | CSCCCN(CCCSC)CCCSC | > 100
4 | COc1cc(-c2ccc(Br)[nH]2)[nH]c1C=NCC(C)C | 3.62
5 | Cc1ccc(-c2n[nH]c(Cc3nc(-c4ccc(C)cc4)n[nH]3)n2)cc1 | > 100
6 | c1ccc(C(C2=Nc3cccc4cccc(c34)N2)c2ccccc2)cc1 | > 100
7 | Cc1nnc2n1N=C(c1ccccc1)/C(=C/c1ccc(-c3ccc(Cl)cc3)o1)S2 | 49.4
8 | CN(CC(=O)N1CC(CCl)c2ccc([N+](=O)[O-])cc21)CC(=O)N1CC(CCl)c2ccc([N+](=O)[O-])cc21 (stereo not drawn) | > 100
9 | COC(=O)NC(Nc1ccccn1)(C(F)(F)F)C(F)(F)F | > 100
10 | CC(=O)Nc1oc(C)c(C)c1S(=O)(=O)c1ccc(Cl)cc1 | > 100
11 | COC1(c2ccc(Cl)cc2)SC=C(C)n2c1noc2=O (stereo not drawn) | > 100
12 | NC1CC(=O)c2cscc21 (stereo not drawn) | 41.7
13 | CC1=CC(=O)[C@@H](O)[C@]2(C)[C@H]3[C@@]4(O)OC[C@]35[C@H]([C@@H](C)[C@H]4O)[C@@H](OC(=O)C(C)(C)CO)C(=O)O[C@@H]5C[C@@H]12 | 41.5

test system: ACHN renal; assay: NCI tumour cell line growth inhibition, 48 h

Row | Structure (SMILES) | TGI [µM]
14 | COc1ccc(/C=c2/sc3n(c2=O)C(c2ccccc2)C2(O)CCCCC2N=3)cc1 (stereo not drawn) | > 12.5
15 | CCCN(CCC)CCc1ccc(OC2=CCN(C)CC2)cc1 | > 100
16 | O=C1OCN(c2ccccc2)C12CCN(Cc1ccccc1)CC2 | > 100
17 | Cc1ccc2c(c1)[nH]c(=S)n2C=C(C(N)=O)C(N)=O | > 100
18 | Cn1c(=O)c2c3ccccc3n(C)c2n(C)c1=O | > 100
19 | CN(C)CCNc1ccc([N+](=O)[O-])c2sc3ccccc3c(=O)c12 | 13.2
20 | COc1cc(NC(C)c2ccc3c(c2)OCCO3)cc(OC)c1OC (stereo not drawn) | > 100
21 | CN1Cc2ccccc2S(=O)(=O)n2cccc2C1=O | > 100
22 | Cc1cccc2oc3c(CC(=O)O)cccc3c(=O)c12 | > 100
23 | S=c1nc2sc3c(c2c(Nc2ccc(Cl)cc2)[nH]1)CCCC3 | > 100
24 | CCCCS(=O)(=O)CCC(N)P(=O)(O)O (stereo not drawn) | > 100
25 | O=[N+]([O-])c1cccc2nc3ccccc3c(NCCCCNc3c4ccccc4nc4cccc([N+](=O)[O-])c34)c12 | 0.0913
26 | C/C=C/C(C#N)(/C=C/c1ccccc1)OP1(=O)OC(c2ccccc2)C(C)N1C (stereo not drawn) | 68.7
27 | CN(C)CCCN1c2ccc([N+](=O)[O-])cc2CCc2cccc([N+](=O)[O-])c21 | 31.5
28 | C=C(C)[C@@H]1CCC2=C[C@@H](OC2=O)[C@@H](C(=C)C)C2=CC(C(=O)O)=C(C1)O2 | > 100
29 | S=C(N1CCN(c2ccc(Cl)c(Cl)c2)CC1)N1CCN(c2ccc(Cl)c(Cl)c2)CC1 | 27.4
30 | Cc1ccc(S(=O)(=O)NC(=O)NC(CC(N)=O)C(=O)O)cc1 (stereo not drawn) | > 100
31 | COc1cc(-c2ccc(Br)[nH]2)[nH]c1C=NCC(C)C | 4.19
32 | Cc1ccc(-c2n[nH]c(Cc3nc(-c4ccc(C)cc4)n[nH]3)n2)cc1 | > 100
33 | c1ccc(C(C2=Nc3cccc4cccc(c34)N2)c2ccccc2)cc1 | 50.2
34 | Cc1nnc2n1N=C(c1ccccc1)/C(=C/c1ccc(-c3ccc(Cl)cc3)o1)S2 | 26.3
35 | CN(CC(=O)N1CC(CCl)c2ccc([N+](=O)[O-])cc21)CC(=O)N1CC(CCl)c2ccc([N+](=O)[O-])cc21 (stereo not drawn) | > 100
36 | COC(=O)NC(Nc1ccccn1)(C(F)(F)F)C(F)(F)F | > 100
37 | CC(=O)Nc1oc(C)c(C)c1S(=O)(=O)c1ccc(Cl)cc1 | > 100
38 | COC1(c2ccc(Cl)cc2)SC=C(C)n2c1noc2=O (stereo not drawn) | > 100
39 | CC1=CC(=O)[C@@H](O)[C@]2(C)[C@H]3[C@@]4(O)OC[C@]35[C@H]([C@@H](C)[C@H]4O)[C@@H](OC(=O)C(C)(C)CO)C(=O)O[C@@H]5C[C@@H]12 | 1.33

test system: CAKI-1 renal; assay: NCI tumour cell line growth inhibition, 48 h

Row | Structure (SMILES) | TGI [µM]
40 | COc1ccc(/C=c2/sc3n(c2=O)C(c2ccccc2)C2(O)CCCCC2N=3)cc1 (stereo not drawn) | > 12.5
41 | CCCN(CCC)CCc1ccc(OC2=CCN(C)CC2)cc1 | > 100
42 | O=C1OCN(c2ccccc2)C12CCN(Cc1ccccc1)CC2 | > 100
43 | Cc1ccc2c(c1)[nH]c(=S)n2C=C(C(N)=O)C(N)=O | > 100
44 | Cn1c(=O)c2c3ccccc3n(C)c2n(C)c1=O | > 100
45 | COc1cc(NC(C)c2ccc3c(c2)OCCO3)cc(OC)c1OC (stereo not drawn) | > 100
46 | CN1Cc2ccccc2S(=O)(=O)n2cccc2C1=O | > 100
47 | Cc1cccc2oc3c(CC(=O)O)cccc3c(=O)c12 | > 100
48 | S=c1nc2sc3c(c2c(Nc2ccc(Cl)cc2)[nH]1)CCCC3 | > 100
49 | CCCCS(=O)(=O)CCC(N)P(=O)(O)O (stereo not drawn) | > 100
50 | O=[N+]([O-])c1cccc2nc3ccccc3c(NCCCCNc3c4ccccc4nc4cccc([N+](=O)[O-])c34)c12 | 0.168
51 | C/C=C/C(C#N)(/C=C/c1ccccc1)OP1(=O)OC(c2ccccc2)C(C)N1C (stereo not drawn) | 54.8
52 | C=C(C)[C@@H]1CCC2=C[C@@H](OC2=O)[C@@H](C(=C)C)C2=CC(C(=O)O)=C(C1)O2 | > 100
53 | S=C(N1CCN(c2ccc(Cl)c(Cl)c2)CC1)N1CCN(c2ccc(Cl)c(Cl)c2)CC1 | 20.4
54 | COc1cc(-c2ccc(Br)[nH]2)[nH]c1C=NCC(C)C | 7.64
55 | c1ccc(C(C2=Nc3cccc4cccc(c34)N2)c2ccccc2)cc1 | > 100
56 | Cc1nnc2n1N=C(c1ccccc1)/C(=C/c1ccc(-c3ccc(Cl)cc3)o1)S2 | 29.4
57 | CN(CC(=O)N1CC(CCl)c2ccc([N+](=O)[O-])cc21)CC(=O)N1CC(CCl)c2ccc([N+](=O)[O-])cc21 (stereo not drawn) | > 100
58 | COC(=O)NC(Nc1ccccn1)(C(F)(F)F)C(F)(F)F | > 100
